Data taken from patent US8906909B2 (Curis, Inc., priority 2009, dated 2014).

What was measured:
[1] = system: HDACs (HeLa cell nuclear extracts); experiment: HDAC enzymatic activity, Biomol Color de Lys system; assay type: biochemical
Outline: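 HeLa nuclear extract as HDAC source with Color de Lys substrate in 50 mM Tris/Cl pH 8.0, 137 mM NaCl, 2.7 mM KCl, 1 mM MgCl2. Serially diluted compounds reacted 1 h at 25 °C, then developer added; fluorescence (Ex 350–380/Em 440–460) fitted sigmoidally for IC50.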

Question: What does the source list for Nc1ncc(-c2nc(N3CCOCC3)c3sc(NCCCCCC(=O)NO)cc3n2)cn1 [Compound 232, 6-[2-(2-Amino-pyrimidin-5-yl)-4-morpholin-4-yl-thieno[3,2-d]pyrimidin-6-ylamino]-hexanoic acid hydroxyamide]?
Answer: melting point: 220 to 225 °C; IC50 [1]: < 100 nM

Question: With COc1ccc(-c2nc(N3CCOCC3)c3sc(NCCCCCC(=O)NO)cc3n2)cn1 [Compound 233, 6-[2-(6-Methoxy-pyridin-3-yl)-4-morpholin-4-yl-thieno[3,2-d]pyrimidin-6-ylamino]-hexanoic acid hydroxyamide] as the compound, how does the melting point read?
Answer: 125 to 130 °C

Question: What about the IC50 [1] of the same compound?
Answer: < 100 nM

Question: Which melting point does the source give for Nc1ncc(-c2nc(N3CCOCC3)c3sc(NCCCCCCC(=O)NO)cc3n2)cn1 [Compound 234, 7-[2-(2-Amino-pyrimidin-5-yl)-4-morpholin-4-yl-thieno[3,2-d]pyrimidin-6-ylamino]-heptanoic acid hydroxyamide] here?
Answer: 235 to 240 °C

Question: What about the IC50 [1] of the same compound?
Answer: < 100 nM

Question: Which melting point does the source give for CNc1ccc(-c2nc(N3CCOCC3)c3sc(C(C)N(C)c4ncc(C(=O)NO)cn4)cc3n2)cn1 (centres unmarked) [Compound 237, N-Hydroxy-2-(methyl(1-(2-(6-(methylamino)pyridin-3-yl)-4-morpholinothieno[3,2-d]pyrimidin-6-yl)ethyl)amino)pyrimidine-5-carboxamide] here?
Answer: 270 to 275 °C

Question: And the IC50 [1]?
Answer: < 100 nM

Question: With CNc1ccc(-c2nc(N3CCOCC3)c3sc(C(C)(C)Nc4ncc(C(=O)NO)cn4)cc3n2)cn1 [Compound 240, N-Hydroxy-2-(2-(2-(6-(methylamino)pyridin-3-yl)-4-morpholinothieno[3,2-d]pyrimidin-6-yl)propan-2-ylamino)pyrimidine-5-carboxamide] as the compound, how does the melting point read?
Answer: 200 to 205 °C

Question: And the IC50 [1]?
Answer: < 100 nM

Question: What does the source list for CN(Cc1cc2nc(-c3cnn(C)c3)nc(N3CCOCC3)c2s1)c1ncc(C(=O)NO)cn1 [Compound 246, N-Hydroxy-2-(methyl((2-(1-methyl-1H-pyrazol-4-yl)-4-morpholinothieno[3,2-d]pyrimidin-6-yl)methyl)amino)pyrimidine-5-carboxamide]?
Answer: melting point: 164 to 169 °C; IC50 [1]: < 100 nM

Question: With COc1ccc(-c2nc(N3CCOCC3)c3sc(C(C)(C)N(C)c4ncc(C(=O)NO)cn4)cc3n2)cn1 [Compound 251, N-Hydroxy-2-((2-(2-(6-methoxypyridin-3-yl)-4-morpholinothieno[3,2-d]pyrimidin-6-yl)propan-2-yl)(methyl)amino)pyrimidine-5-carboxamide] as the compound, how does the melting point read?
Answer: 175 to 178 °C

Question: And the IC50 [1]?
Answer: < 100 nM

Question: Which results are given for COc1ccc(-c2nc(N3CCOCC3)c3sc(S(=O)(=O)Nc4ncc(C(=O)NO)cn4)cc3n2)cn1 [Compound 252, 2-[2-(6-Methoxy-pyridin-3-yl)-4-morpholin-4-yl-thieno[3,2-d]pyrimidine-6-sulfonylamino]-pyrimidine-5-carboxylic acid hydroxyamide]?
Answer: melting point: 259 to 265 °C; IC50 [1]: < 100 nM

Question: Which melting point does the source give for CCOc1ccc(-c2nc(N3CCOCC3)c3sc(CN(C)c4ncc(C(=O)NO)cn4)cc3n2)cn1 [Compound 255, 2-(((2-(6-ethoxypyridin-3-yl)-4-morpholinothieno[3,2-d]pyrimidin-6-yl)methyl)(methyl)amino)-N-hydroxypyrimidine-5-carboxamide] here?
Answer: 162 to 165 °C

Question: And the IC50 [1]?
Answer: < 100 nM

Question: For CN(Cc1cc2nc(-c3ccc(OCCO)nc3)nc(N3CCOCC3)c2s1)c1ncc(C(=O)NO)cn1 [Compound 256, N-Hydroxy-2-(((2-(6-(2-hydroxyethoxy)pyridin-3-yl)-4-morpholinothieno[3,2-d]pyrimidin-6-yl)methyl)(methyl)amino)pyrimidine-5-carboxamide], which melting point is on record?
Answer: 143 to 145 °C

Question: And the IC50 [1]?
Answer: < 100 nM

Question: With CN(C)CCOc1ccc(-c2nc(N3CCOCC3)c3sc(CN(C)c4ncc(C(=O)NO)cn4)cc3n2)cn1 [Compound 257, 2-(((2-(6-(2-(Dimethylamino)ethoxy)pyridin-3-yl)-4-morpholinothieno[3,2-d]pyrimidin-6-yl)methyl)(methyl)amino)-N-hydroxypyrimidine-5-carboxamide] as the compound, how does the melting point read?
Answer: 140 to 143 °C

Question: What about the IC50 [1] of the same compound?
Answer: < 100 nM

Question: What does the source list for CNCCOc1ccc(-c2nc(N3CCOCC3)c3sc(CN(C)c4ncc(C(=O)NO)cn4)cc3n2)cn1 [Compound 258, N-Hydroxy-2-(methyl((2-(6-(2-(methylamino)ethoxy)pyridin-3-yl)-4-morpholinothieno[3,2-d]pyrimidin-6-yl)methyl)amino)pyrimidine-5-carboxamide]?
Answer: melting point: 170 to 175 °C; IC50 [1]: < 100 nM

Question: Which results are given for CN(Cc1cc2nc(-c3ccc(OCCN)nc3)nc(N3CCOCC3)c2s1)c1ncc(C(=O)NO)cn1 [Compound 259, 2-(((2-(6-(2-Aminoethoxy)pyridin-3-yl)-4-morpholinothieno[3,2-d]pyrimidin-6-yl)methyl)(methyl)amino)-N-hydroxypyrimidine-5-carboxamide]?
Answer: melting point: 110 to 115 °C; IC50 [1]: < 100 nM

Question: For COc1ncc(-c2nc(N3CCOCC3)c3sc(C(C)N(C)c4ncc(C(=O)NO)cn4)cc3n2)cn1 (centres unmarked) [Compound 262, N-Hydroxy-2-((1-(2-(2-methoxypyrimidin-5-yl)-4-morpholinothieno[3,2-d]pyrimidin-6-yl)ethyl)(methyl)amino)pyrimidine-5-carboxamide], which melting point is on record?
Answer: 210 to 215 °C

Question: What about the IC50 [1] of the same compound?
Answer: < 100 nM

Question: Which results are given for COc1ncc(-c2nc(N3CCOCC3)c3sc(C(C)(C)Nc4ncc(C(=O)NO)cn4)cc3n2)cn1 [Compound 263, N-Hydroxy-2-(2-(2-(2-methoxypyrimidin-5-yl)-4-morpholinothieno[3,2-d]pyrimidin-6-yl)propan-2-ylamino)pyrimidine-5-carboxamide]?
Answer: melting point: 202 to 207 °C; IC50 [1]: < 100 nM

Question: What does the source list for Nc1ccc(-c2nc(N3CCOCC3)c3sc(S(=O)(=O)Nc4ncc(C(=O)NO)cn4)cc3n2)cc1 [Compound 271, 2-[2-(4-Amino-phenyl)-4-morpholin-4-yl-thieno[3,2-d]pyrimidine-6-sulfonylamino]-pyrimidine-5-carboxylic acid hydroxyamide]?
Answer: melting point: 197 to 205 °C; IC50 [1]: < 100 nM

Question: For CN(Cc1cc2nc(-c3ccc(N)c(Cl)c3)nc(N3CCOCC3)c2s1)c1ncc(C(=O)NO)cn1 [Compound 275, 2-(((2-(4-Amino-3-chlorophenyl)-4-morpholinothieno[3,2-d]pyrimidin-6-yl)methyl)(methyl)amino)-N-hydroxypyrimidine-5-carboxamide], which melting point is on record?
Answer: 241 to 246 °C

Question: What about the IC50 [1] of the same compound?
Answer: < 100 nM

Question: With CN(Cc1cc2nc(-c3ccc(N)c(F)c3)nc(N3CCOCC3)c2s1)c1ncc(C(=O)NO)cn1 [Compound 276, 2-(((2-(4-Amino-3-fluorophenyl)-4-morpholinothieno[3,2-d]pyrimidin-6-yl)methyl)(methyl)amino)-N-hydroxypyrimidine-5-carboxamide] as the compound, how does the melting point read?
Answer: 203 to 206 °C

Question: And the IC50 [1]?
Answer: < 100 nM

Question: What does the source list for CN(Cc1cc2nc(-c3ccc(N)c([N+](=O)[O-])c3)nc(N3CCOCC3)c2s1)c1ncc(C(=O)NO)cn1 [Compound 278, 2-(((2-(4-Amino-3-nitrophenyl)-4-morpholinothieno[3,2-d]pyrimidin-6-yl)methyl)(methyl)amino)-N-hydroxypyrimidine-5-carboxamide]?
Answer: melting point: 202 to 206 °C; IC50 [1]: < 100 nM
